The source of these data is patent US20190117620A1, “CHEMOTHERAPY IMPROVEMENTS” (NOXOPHARM LIMITED, priority 2016, published 2019).

In assay [1] the test system is late-stage ovarian cancer. The assay can be described thus: Example 2: rectal dehydroequol with intravenous carboplatin in a patient with platin- and taxane-refractory late-stage ovarian cancer. Particulars: stated objective; dehydroequol 400 mg every 12 hours rectally for 7 days + carboplatin AUC 6 iv on Day 2, every 28 days, 6 courses. It counts as in vivo, human. The text has this:
A patient with late-stage ovarian cancer. Previously treated intravenously with multiple rounds of carboplatin and paclitaxel and now displaying multi-drug resistance by showing disease progression while undergoing combined therapy with carboplatin/paclitaxel. This patient meets the definition of platin- and taxane-refractory disease.
The patient is showing multiple tumours throughout the abdominal cavity and is suffering failing health although still considered sufficiently robust to withstand further cytotoxic chemotherapy were it considered likely to provide a benefit.
The patient is treated with 400 mg of dehydroequol every 12 hours for 7 consecutive days. The dehydroequol is administered rectally in a solid 2 gram suppository dosage form in a theobroma oil base.
Carboplatin is injected intravenously at a dosage equivalent to an AUC of 6 on Day 2 of the 7-day dehydroequol treatment regimen.
This regimen is repeated every 28 days for a total of 6 courses of treatment.

Assay [2] concerns castrate-resistant metastatic prostate cancer. In words: Example 3: docetaxel course, with or without rectal dehydroequol as adjuvant, in castrate-resistant metastatic prostate cancer. The format is in vivo, human. The note with it: stated objective; dehydroequol 400 mg once daily rectally for 7 days as adjuvant to docetaxel 175 mg/m2 iv every 21 days. As to the method:
A patient with castrate-resistant metastatic prostate cancer with secondary cancers in several inguinal lymph nodes and multiple bones (thoracic vertebrae, femur, ribs, humerus). Having progressed on hormone-ablation therapy, the standard next step for this patient is to receive a course of treatment with docetaxel involving an intravenous injection of a dosage of […] over 3 hours every 21 days for 18 weeks.
Dehydroequol is administered as adjuvant therapy at a dosage of 400 mg once daily for 7 consecutive days commencing on the day prior to the administration of docetaxel and repeated for the duration of the course of docetaxel therapy. The dehydroequol is administered rectally in a solid 2 gram suppository dosage form in a theobroma oil base.

For assay [3] the test system is unchanged. The note with it: docetaxel alone, standard course; response = complete remission, partial remission or no disease progression; cited from earlier work.

As for `Oc1ccc(C2=Cc3ccc(O)cc3OC2)cc1` [dehydroequol, 2H-1-Benzopyran-7-0,1,3-(4-hydroxyphenyl)], in assay [1], the “prolong the survival of the patient (additional)” value came out at 12 months. Further, the “response rate (objective)” value in assay [2] is on record as 40-100%.

On to `CC(=O)O[C@@]12CO[C@@H]1C[C@H](O)[C@@]1(C)C(=O)[C@H](O)C3=C(C)[C@@H](OC(=O)[C@H](O)[C@@H](NC(=O)OC(C)(C)C)c4ccccc4)C[C@@](O)([C@@H](OC(=O)c4ccccc4)[C@H]21)C3(C)C` [docetaxel], for which the “response rate (reported)” value in assay [3] was 30%.
